Laboratory results published in US6465523B1, “4-substituted-3-substituted-amino-cyclobut-3-ene-1,2-diones and analogs thereof as novel potassium channel openers” (American Home Products, priority 1998, dated 2002).

Assays:
Bladder Tissue = assay: Smooth muscle (bladder) relaxing activity: inhibition of KCl-enhanced contractile activity of isolated rat bladder strips; format: cell-based, Sprague-Dawley rats; details: for inhibition at 30 µM / IC50 / Bladder Tissue, I = percent inhibition of contractile activity: rat bladder strips, additional 15 mM KCl; for inhibition at 30 µM / Bladder Tissue, I = percent inhibition of contractile activity: percent inhibition at 30 μM (footnote *); for inhibition at 30 µM: read-out: Bladder Tissue, I = percent inhibition of contractile activity; for IC50: 50% inhibition of pre-drug contractile activity; for Ratio Aorta IC50 / Bladder IC50: selectivity for bladder over aorta tissue, rat
Protocol: The smooth muscle (bladder) relaxing activity of the compounds of this invention was established in accordance with standard pharmaceutically accepted test procedures with representative compounds as follows:
Sprague-Dawley rats (150-200 g) are rendered unconscious by CO2 asphyxiation and then euthanized by cervical dislocation. The bladder is removed into warm (37° C.) physiological salt solution (PSS) of the following composition (mM): NaCl, 118.4; KCl, 4.7; CaCl2, 2.5; […]; NaHCO3, 24.9; KH2PO4, 1.2; glucose, 11.1; EDTA, 0.023; gassed with […]; pH 7.4. The bladder is opened and then cut into strips 1-2 mm in width and 7-10 mm in length. The strips are subsequently suspended in a 10 mL tissue bath under an initial resting tension of 1.5 g. The strips are held in place by two surgical clips one of which is attached to a fixed hook while the other is attached to an isometric force transducer. […] The carbachol is then washed out and the tissue allowed to relax to its resting level of activity. Following a further 30 min. period of recovery an additional 15 mM KCl are introduced into the tissue bath. This increase in KCl concentration results in a large increase in the amplitude of spontaneous contractions (and initiation of contractions in previously quiescent strips) superimposed upon a small increase in basal tone. Following stabilization of this enhanced level .of contractile activity, incremental increases in the concentration of test compound or vehicle are introduced into the tissue bath. Contractile activity is measured for each compoundor vehicle concentration during the last minute of a 30 minute challenge.
The isometric force developed by the bladder strips is measured using a […] to elicit 50% inhibition of pre-drug contractile activity (IC50 concentration) and is calculated from this concentra-tion-response curve.

Aorta Tissue = assay: Smooth muscle (aorta) relaxing activity: inhibition of KCl-evoked contracture of isolated rat thoracic aorta rings; format: cell-based, Sprague-Dawley rats; details: 30-35 mM KCl contracture, 50% inhibition of pre-drug contractile force
Description: The smooth muscle (aorta) relaxing activity of the compounds of this invention was established in accordance with standard pharmaceutically accepted test procedures with representative compounds as follows:
Male Sprague-Dawley rats (150-200 g) are rendered unconscious by CO2 asphyxiation and then euthanized by cervical dislocation. The thoracic aorta is removed into warm (37 deg.C.) physiological salt solution (PSS) of the following composition (mM): NaCl; 118.4; KCl, 4.7; CaCl2, 2.5; MgSO4.7H2O, 1.2; NaHCO3, 24.9; KH2PO4, 1.2; glucose, 11.1; EDTA, 0.023; gassed with 95% O2/5% CO2; pH 7.4. The aorta is cleaned of fat and loose adventitia and cut into rings 3-4 mm in width. The rings are subsequently suspended between two stainless steel wire tissue holders in a 10 ml tissue bath. One wire tissue holder is attached to a fixed hook while the other is attached to an isometric force transducer. Resting tension is set at 1 g. The tissues are to recover for a period of 60 mins. prior to beginning the experiment. Tissues are challenged with PSS containing 25 mM KCl to elicit a contracture. The tissues are then washed repeatedly with fresh PSS over a period of 30 mins. and allowed to recover to baseline tension. PSS containing 30-35 mM KCl is then introduced into the tissue bath to evoke a contracture that is allowed to stabilize for not less than 45 minutes. (Other stimuli such as norepine-phrine, PGF2a, histamine, angiotensin II, endothelin or PSS containing 80 mM KCl may also be used to evoke a contracture as necessary). Increasing concentrations of test compound or vehicle are then added to the tissue bath in a cumulative fashion.
Isometric force development by the aortic rings is measured using a force transducer and recorded on a polygraph. The percentage inhibition of contractile force evoked by each concentration of a given test compound is used to generate a concentration-response curve. The concentration of test compound required to elicit 50% inhibition of pre-drug contractile force (IC50 concentration) is calculated from this dose-response curve. (Log concentration versus response curves are approximately linear between 20% and 80% of the maximum response. As such, the IC50 concentration of the drug is determined by linear regression analysis (where x=log concentration and y=% inhibition) of the data points in the 20% to 80% region of the curve]. The maximum percentage inhibition of contractile force evoked by a test compound is also recorded for concentrations of test compound < or = to 30 μM. Data collected from 2 animals are averaged for primary screens.

melting point | IC50 (Bladder Tissue) [µM] | Compound | inhibition at 30 µM (Bladder Tissue) [%] | further results
215.4 to 216.2 °C |  | COc1ccc(-c2c(NCC(C)c3ccccc3)c(=O)c2=O)cc1 (stereo not drawn) [Example 7, 3-(4-Methoxy-phenyl)-4-(2-phenyl-propylamino)-cyclobut-3-ene-1,2-dione] | 7.4 | 
220.2 to 222.3 °C |  | COc1ccc(-c2c(NCCc3cccc(C(F)(F)F)c3)c(=O)c2=O)cc1 [Example 5, 3-(4-Methoxy-phenyl)-4-[2-(3-trifluoromethyl-phenyl)-ethylamino]-cyclobut-3-ene-1,2-dione] | 9.75 | 
 | 15.6 | CC(Nc1c(-c2ccc(C(F)(F)F)cc2)c(=O)c1=O)C(C)(C)C (stereo not drawn) [Example 10, 3-(4-Trifluoromethyl-phenyl)-4-(1,2,2-trimethyl-propylamino)-cyclobut-3-ene-1,2-dione] |  | 
109 to 115 °C | 12 | COc1ccc(-c2c(N(C)C(C)C)c(=O)c2=O)cc1 [Example 3, 3-(Isopropyl-methyl-amino)-4-(4-methoxy-phenyl)-cyclobut-3-ene-1,2-dione] |  | Ratio Aorta IC50 / Bladder IC50 (Bladder Tissue): 3.85; IC50 (Aorta Tissue): 46.2 ± 7.8 µM
152 to 155.9 °C (dec.) |  | CCC(C)(C)Nc1c(-c2cccnc2)c(=O)c1=O.Cl [Example 12, 3-(1,1-Dimethyl-propylamino)-4-(pyridin-3-yl)-cyclobut-3-ene-1,2-dione Hydrochloride] | 26 | 
115.4 to 119 °C (dec.) |  | CCC(C)(C)Nc1c(-c2ccc(C(F)(F)F)cc2)c(=O)c1=O [Example 11, 4-(4Trifluoromethyl-phenyl)-3-(1,1-dimethyl-propylamino)-cyclobut-3-ene-1,2-dione] | 34.2 | 
 |  | COc1ccc(Cc2c(NC(C)C(C)(C)C)c(=O)c2=O)cc1.COc1ccc(Cc2c(NC(C)C(C)(C)C)c(=O)c2=O)cc1.COc1ccc(Cc2c(NC(C)C(C)(C)C)c(=O)c2=O)cc1.COc1ccc(Cc2c(NC(C)C(C)(C)C)c(=O)c2=O)cc1.O (stereo not drawn) [Example 23, 3-(4-Methoxy-benzyl)-4-(1,2,2-trimethyl-propylamino)-cyclobut-3-ene-1,2-dione One-quarter Hydrate] |  | Bladder Tissue, I = percent inhibition of contractile activity (Bladder Tissue): 1 = 10.2%
258.1 to 260.2 °C | 11.2 | COc1ccc(-c2c(NCCc3ccc(C(C)(C)C)cc3)c(=O)c2=O)cc1 [Example 8, 3-[2-(4-tert-Butyl-phenyl)-ethylamino]-4-(4-methoxy-phenyl)-cyclobut-3-ene-1,2-dione] |  | 
 | 15.9 | COc1ccc(C(C(C)=O)c2c(N(C(=O)OC(C)(C)C)C(C)C(C)(C)C)c(=O)c2=O)cc1 (stereo not drawn) [Example 24] |  | 
 |  | CC(Nc1c(/C=C/c2ccc(Br)cc2)c(=O)c1=O)C(C)(C)C (stereo not drawn) [Example 26, 3-[(E)-2-(4-Bromo-phenyl)-vinyl]-4-(1,2,2-trimethyl-propylamino)-cyclobut-3-ene-1,2-dione] | 15.6 | 
 | 16.2 | CC(=O)C(c1ccc(C(F)(F)F)cc1)c1c(NC(C)C(C)(C)C)c(=O)c1=O (stereo not drawn) [Example 21, 3-[2-Oxo-1-(4-trifluoromethyl-phenyl)-propyl]-4-(1,2,2-trimethyl-propylamino)-cyclobut-3-ene-1,2-dione] |  | 
150 to 151 °C | 1.2 | COc1ccc(-c2c(NC(C)(C)Cc3ccccc3)c(=O)c2=O)cc1 [Example 1, 3-(1,1-Dimethyl-2-phenyl-ethylamino)-4-(4-methoxy-phenyl)-cyclobut-3-ene-1,2-dione] |  | Ratio Aorta IC50 / Bladder IC50 (Bladder Tissue): 2.71; IC50 (Aorta Tissue): 3.25 ± 0.35 µM
179 to 181 °C | 9.51 | COc1ccc(-c2c(NC(C)C(C)(C)C)c(=O)c2=O)cc1 (stereo not drawn) [Example 4, 3-(4-Methoxy-phenyl)-4-(1,2,2-trimethyl-propylamino)-cyclobut-3-ene-1,2-dione] |  | Ratio Aorta IC50 / Bladder IC50 (Bladder Tissue): 2.56; IC50 (Aorta Tissue): 24.2 ± 6.3 µM
133 to 135 °C | 2.5 | CCC(C)(C)Nc1c(-c2ccc(OC)cc2)c(=O)c1=O [Example 2, 3-(1,1-Dimethyl-propylamino)-4-(4-methoxy-phenyl)-cyclobut-3-ene-1,2-dione] |  | Ratio Aorta IC50 / Bladder IC50 (Bladder Tissue): 15.1; IC50 (Aorta Tissue): 37.6 ± 6.05 µM
240.2 to 241 °C | 2.94 | CC(Nc1c(/C=C/c2ccc(C#N)cc2)c(=O)c1=O)C(C)(C)C (stereo not drawn) [Example 27, 4-{(E)-2-[3,4-Dioxo-2-(1,2,2-trimethyl-propylamino)-cyclobut-1-enyl]-vinyl}-benzonitrile] |  | 
 |  | CC(Nc1c(-c2ccc(C#N)cc2)c(=O)c1=O)C(C)(C)C (stereo not drawn) [Example 9, 4-[3,4-Dioxo-2-(1,2,2-trimethyl-propylamino)-cyclobut-1-enyl]benzonitrile] | 27.2 | 
 |  | 3-(1,1-Dimethyl-2-phenyl-ethylamino)-4-(3-methoxy-phenyl)-cyclobut-3-ene-1,2-dione [Example 25] |  | Bladder Tissue, I = percent inhibition of contractile activity (Bladder Tissue): 1 = 30.35%
158.7 to 160.1 °C | 26.9 | COc1ccc(-c2c(N[C@H](C)c3ccccc3)c(=O)c2=O)cc1 [Example 6, (−)-3-(4-Methoxy-phenyl)-4-((R)-1-phenyl-ethylamino)-cyclobut-3-ene-1,2-dione] |  | 
210.6 to 211.3 °C | 25.7 | CC(Nc1c(-c2ccc(Br)cc2)c(=O)c1=O)C(C)(C)C (stereo not drawn) [Example 22, 3-(4-Bromo-phenyl)-4-(1,2,2-trimethyl-propylamino)-cyclobut-3-ene-1,2-dione] |  | 
